# Experiments:
# 4T1.2 tumours = assay: 4T1.2 tumour model: tumour growth inhibition; format: in vivo, Balb/c mice; settings: day 18, PG545 15 mg/kg weekly, antibody 200 μg intraperitoneally days 1, 4, 8, 11, 15
# Protocol: Female Balb/c mice (Age 8 weeks; Walter and Eliza Hall Institute of Medical Research (WEHI), Victoria Australia) were inoculated in the intramammary fatpad with 1×10^5 4T1.2 cells in phosphate buffered saline. 4T1.2 is a mouse mammary tumour model.
# The experiment was ended on day 18 or earlier if an ethical endpoint was met. Blood was collected via cardiac bleed and serum was prepared and frozen at −80° C.
# The percentage tumour growth inhibition was determined according to the following formula: 100×(1−ΔT/ΔC) where ΔC and ΔT were calculated by subtracting the mean tumour volume in each group on day 1 of treatment from the mean tumour volume on the day of analysis. Statistical analysis of the in vivo data was performed using Graph Pad Prism Version 6.0 (Graph Pad La Jolla, Calif.). An ANOVA analysis was performed followed by Dunnett's post hoc test to compare the tumour growth in the treated groups to the vehicle control.
# [1] = mouse, in vivo, 20 mg/kg
# Protocol: Mice were weighed and tumours measured 2-3 times weekly using electronic callipers. Tumour volume (mm^3) was calculated as length (mm)/2×width (mm)^2. One week following implantation mice with similar sized tumours (mean tumour volume 56 mm^3) were randomised into 4 groups of 6 animals (Day 1). Treatment groups were saline+control antibody, PG545+control antibody, saline+anti-PD-1 and PG545+anti-PD-1.
# […] Mice received a small dish containing a food supplement (Ensure mixed with food dust) daily.
# In FIG. 1, the data represent the mean percent weight change from day 1 for each group; bars are standard error of the mean (SEM). […] It was decided to harvest the experiment on day 18.
# dendritic cell (DC) = settings: cited from earlier work
# [2] = test system: tumour-associated macrophages (TAMs) and myeloid-derived suppressor cells (MDSCs); settings: preclinical pancreatic cancer models, chemically-induced skin cancer model; cited from earlier work
# advanced solid tumours = settings: cited from earlier work
smiles,measurement,setting,value
"CC(C)CCC[C@@H](C)[C@H]1CC[C@H]2[C@@H]3CC[C@H]4C[C@@H](O[C@@H]5O[C@H](COS(=O)(=O)[O-])[C@@H](O[C@H]6O[C@H](COS(=O)(=O)[O-])[C@@H](O[C@H]7O[C@H](COS(=O)(=O)[O-])[C@@H](O[C@H]8O[C@H](COS(=O)(=O)[O-])[C@@H](OS(=O)(=O)[O-])[C@H](OS(=O)(=O)[O-])[C@H]8OS(=O)(=O)[O-])[C@H](OS(=O)(=O)[O-])[C@H]7OS(=O)(=O)[O-])[C@H](OS(=O)(=O)[O-])[C@H]6OS(=O)(=O)[O-])[C@H](OS(=O)(=O)[O-])[C@H]5OS(=O)(=O)[O-])CC[C@]4(C)[C@H]3CC[C@]12C.[Na+].[Na+].[Na+].[Na+].[Na+].[Na+].[Na+].[Na+].[Na+].[Na+].[Na+].[Na+].[Na+] [PG545, 3β,5α-Cholestanyl 2,3,4,6-tetra-O-sodium sulfonato-α-D-glucopyranosyl-(1→4)-2,3,6-tri-O-sodium sulfonato-α-D-glucopyranosyl-(1→4)-2,3,6-tri-O-sodium sulfonato-α-D-glucopyranosyl-(1→4)-2,3,6-tri-O-sodium sulfonato-β-D-glucopyranoside]",Tumour growth inhibition (% TGI),4T1.2 tumours,68%
same,Tolerability (maximum tolerated dose issues),[1],body weight issues
same,Activation of T cells,"dendritic cell (DC); PG545 alone, naïve mice and mice bearing A20 lymphoma tumours",does not activate T cells
same,Activation of NK cells,dendritic cell (DC); via effect on DCs,potent activation
same,TAMs and MDSCs within the tumour microenvironment,[2],depletion
same,Reductions in tumour size,advanced solid tumours; PG545 monotherapy,did not lead to reductions in tumour size
same,Maximum tolerated dose,"advanced solid tumours; once weekly IV infusion, patients with advanced solid tumours",100 mg
